Laboratory results from patent publication US11752162B2, “Compounds and compositions for treating solid tumors by intratumoral administration” (Novartis AG, priority 2017, dated 2023).

Legend:
[1] = Binding efficiency of Compound 15 to aluminum-containing particles (Alhydrogel) in Tris buffer; assay type: physicochemical
From the text: The efficiency of binding of compounds of Formula (A) to aluminum-containing particles, as reflected in the percentage (%) bound to aluminum-containing particles, is a function of the (weight/weight) ratio of aluminum-containing particles to compound and to the final concentration (mg/mL) of compound in suspension with aluminum hydroxide. By way of example, the dependence of binding efficiency on the aluminum-containing particles to compound (w/w) ratio is shown in Table 8, where the final concentration of Compound 15 is fixed at 2 mg/mL and the amount of aluminum hydroxide is varied to obtain the desired ratio. The percentage of Compound 15 bound were obtained as described above in the “Materials and Method”, and the suspensions of Compound 15/Alhydrogel® were prepared in 20 mM Tris buffer (pH 7.4) as described above in “Compound 15/Alhydrogel® Suspensions”.
In addition, for (w/w) ratios of aluminum-containing particles to compound of 1.5:1 and below, the binding efficiency has an apparent pH dependence. The effect of pH on binding efficiency is seen in Table 10, where the binding efficiency of Compound 15 at either a ratio of aluminum hydroxide to Compound 15 (w/w) of 1.5:1 or 2:1 is given shown. The percentage of Compound bound was obtained as described above, although in Tris buffer at differing pH values. The suspensions of Compound 15/Alhydrogel® in Tris buffer at various were prepared as described above in “Compound 15/Alhydrogel® Suspensions”.

[2] = system: MC38 tumors; test: Contralateral MC38 colon cancer model, alone or with checkpoint inhibitors; assay type: in vivo, mouse; conditions: Compound 15 alone, without aluminum hydroxide, 50 μg i.t.
Experimental: MC38 cells were grown in sterile conditions in a 37° C. incubator with 5% CO2 for two weeks. The cells were cultured in Dulbecco's Modified Eagle's medium (DMEM) media supplemented with 10% FBS, cells were passed every 2-3 days. On the day of injection, cells were harvested (Passage 12) and re-suspended in Hanks' Balanced Salt Solution (HBSS) at a concentration of 2.5×10^6/ml. Cells were Radil tested for mycoplasma and murine viruses.
For each mouse, 0.25×10^6 cells were implanted with subcutaneously injection into right flank using a 28½ g needle ([…]). After the first implantation on day 3 (0.25×10^6) cells are implanted with a subcutaneous injection into left flank using a 28½ g needle (100 μL injection volume). Tumor sizes were assessed three times a week once tumors were palpable. Tumor sizes were determined by using caliper measurements, with tumor volumes calculated using the formula: (Length×Width×Width)/2.
Female C57BL/6 mice bearing the MC38 tumors were randomized into 7 groups (n=9 mice per group) 9 days post tumor cell implantation with an average tumor volume range of 69.09-142.25 mm^3, and the separate groups of tumor bearing mice received treatment as shown in Table 17.
The anti-tumor efficacy of Compound 15 adsorbed to aluminum hydroxide (Alhydrogel®) alone or in combination with checkpoint inhibitors, was determined using a contralateral MC38 colon cancer model. The tumor volume was obtained after two weekly intratumoral injections of Compound 15 adsorbed to aluminum hydroxide (50 μg each) either alone (Group 2), in a double combination with intraperitoneal injection (twice weekly) of an anti-PD-L1 antibody (10 mg/kg) (Group 5), in a double combination with intraperitoneal injection (twice weekly) of an anti-CTLA4 antibody (10 mg/kg) (Group 6), or in a triple combination with intraperitoneal injection (twice weekly) of an anti-PD-L1 antibody (10 mg/kg) and with intraperitoneal injection of an anti-CTLA4 antibody (10 mg/kg) (group 7). For comparison, data was obtained after an intraperitoneal injection (twice weekly) of the anti-PD-L1 antibody (10 mg/kg) alone (Group 3) and after an intraperitoneal injection (twice weekly) of the anti-CTLA4 antibody (10 mg/kg) alone (Group 4). The untreated control data was also obtained (Group 1).
The anti-tumor efficacy of Compound 15 alone (without aluminum hydroxide (Alhydrogel®)) or in combination with checkpoint inhibitors was determined using a contralateral MC38 colon cancer model. […] In addition, the anti-tumor efficacy of Compound 15 adsorbed to aluminum hydroxide (Alhydrogel®) alone or in a triple combination with checkpoint inhibitors was determined using a contralateral MC38 colon cancer model. […]

[3] = Binding efficiency of Compound 15 to aluminum-containing particles (Alhydrogel) in Tris buffer; assay type: physicochemical; remark: listed apart in the source
[4] = Compound 15 2 mg/mL, aluminum 0.2 mg/mL, ratio 0.1:1, 20 mM Tris pH 7.4
[5] = Compound 15 2 mg/mL, aluminum 0.5 mg/mL, ratio 0.25:1, 20 mM Tris pH 7.4
[6] = Compound 15 2 mg/mL, aluminum 1 mg/mL, ratio 0.5:1, 20 mM Tris pH 7.4
[7] = Compound 15 2 mg/mL, aluminum 4 mg/mL, ratio 2:1, 20 mM Tris pH 7.4
[8] = Compound 15 0.25 mg/mL, aluminum 0.625 mg/mL, ratio 2.5:1
[9] = Compound 15 0.25 mg/mL, aluminum 5 mg/mL, ratio 20:1
[10] = Compound 15 1 mg/mL, aluminum 2.5 mg/mL, ratio 2.5:1
[11] = Compound 15 2 mg/mL, aluminum 0.1 mg/mL, ratio 0.05:1, 20 mM Tris pH 7.4
[12] = Compound 15 2 mg/mL, aluminum 2 mg/mL, ratio 1:1, 20 mM Tris pH 7.4
[13] = Compound 15 2 mg/mL, aluminum 3 mg/mL, ratio 1.5:1, 20 mM Tris pH 7.4
[14] = Compound 15 3 mg/mL, aluminum 5 mg/mL, ratio 1.7:1
[15] = Compound 15 3 mg/mL, aluminum 7.5 mg/mL, ratio 2.5:1

## Cc1cc(OCCOCCC(F)(F)P(=O)(O)O)ccc1CCc1cnc2c(N)nc3cc(CCC(=O)O)ccc3c2c1 [Compound 15, 3-(5-amino-2-(4-(2-(3,3-difluoro-3-phosphonopropoxy)ethoxy)-2-methylphenethyl)benzo[f][1,7]naphthyridin-8-yl)propanoic acid]
[1]; [4]
  Compound 15 % Bound: 12.5%
  Compound 15 % Free: 87.5%
[1]; [5]
  Compound 15 % Bound: 25.7%
[1]; [6]
  Compound 15 % Free: 56.5%
[1]; [7]
  Compound 15 % Bound: 99.7%
  Compound 15 % Free: 0.3%
[1]; aluminum hydroxide:Compound 15 ratio (w/w) 1.5:1, Tris buffer pH 8
  Compound 15 % Bound: 91.1%
[1]; aluminum hydroxide:Compound 15 ratio (w/w) 2:1, Tris buffer pH 7.5
  Compound 15 % Bound: 99.7%
[2]
  difference from the no treatment group, contralateral tumor site: did not show a difference from the no treatment group
  difference from the no treatment group, primary injection site: did not show a difference from the no treatment group
[3]; [8]
  Compound 15 % Bound: 90.7%
  Compound 15 % Free: 9.3%
[3]; [9]
  Compound 15 % Bound: 97.6%
  Compound 15 % Free: 1.4%
[3]; [10]
  Compound 15 % Bound: 93.5%
  Compound 15 % Free: 6.5%
[3]; [11]
  Compound 15 % Bound: 9.6%
  Compound 15 % Free: 90.4%
[3]; [5]
  Compound 15 % Free: 74.3%
[3]; [6]
  Compound 15 % Bound: 43.5%
[3]; [12]
  Compound 15 % Bound: 80.8%
  Compound 15 % Free: 19.2%
[3]; [13]
  Compound 15 % Bound: 97.6%
  Compound 15 % Free: 2.4%
[3]; [14]
  Compound 15 % Bound: 99.6%
  Compound 15 % Free: 0.4%
[3]; [15]
  Compound 15 % Bound: 97.1%
  Compound 15 % Free: 2.9%
[3]; aluminum hydroxide:Compound 15 ratio (w/w) 1.5:1, Tris buffer pH 7
  Compound 15 % Bound: 98.5%
[3]; aluminum hydroxide:Compound 15 ratio (w/w) 1.5:1, Tris buffer pH 7.5
  Compound 15 % Bound: 85.9%
[3]; aluminum hydroxide:Compound 15 ratio (w/w) 2:1, Tris buffer pH 7
  Compound 15 % Bound: 99.3%
[3]; aluminum hydroxide:Compound 15 ratio (w/w) 2:1, Tris buffer pH 8
  Compound 15 % Bound: 99.1%
[3]; dosing formulation of Example 9, 100 mM Tris pH 7.4
  % Free Compound 15: 100%
[3]; dosing formulation of Example 10, 100 mM Tris pH 7.4
  % Free Compound 15: 100%
